Source: ChEMBL document CHEMBL1201862, “PubChem BioAssay data set” (2004)
The source made the active and inactive calls.

What was measured:
Cytochrome P450 1A2 = target: T1, Cytochrome P450 1A2 (Homo sapiens, UniProt P05177);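 note: PubChem cytochrome P450 panel assay, CYP1A2 panel member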
T1 sequence (P05177 whole entry): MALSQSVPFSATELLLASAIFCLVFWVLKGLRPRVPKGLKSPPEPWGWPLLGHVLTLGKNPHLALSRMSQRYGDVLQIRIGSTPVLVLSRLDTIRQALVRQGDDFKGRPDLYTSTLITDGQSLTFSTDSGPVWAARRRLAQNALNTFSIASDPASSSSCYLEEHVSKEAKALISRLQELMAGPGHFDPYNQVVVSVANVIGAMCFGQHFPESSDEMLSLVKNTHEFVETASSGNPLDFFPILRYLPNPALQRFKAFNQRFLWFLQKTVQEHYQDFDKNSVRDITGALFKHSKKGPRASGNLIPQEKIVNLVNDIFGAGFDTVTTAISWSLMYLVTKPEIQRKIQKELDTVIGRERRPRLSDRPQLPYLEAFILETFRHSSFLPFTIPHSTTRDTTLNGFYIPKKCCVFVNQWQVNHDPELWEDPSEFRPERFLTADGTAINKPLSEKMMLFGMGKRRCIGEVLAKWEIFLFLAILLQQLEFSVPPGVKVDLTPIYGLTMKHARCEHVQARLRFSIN

Cytochrome P450 3A4 = Cytochrome P450 3A4 (Homo sapiens, UniProt P08684);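 note: CYP3A4 tested as one member of a cytochrome P450 panel screen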
Leucine aminopeptidase = target: T2, Leucine aminopeptidase (Plasmodium falciparum 3D7, UniProt Q8IL11); test: P. falciparum M17LAP inhibitors, primary screen, biochemical, fluorogenic H-Leu-NHMec substrate, 1536-well (AID 1619); format: functional
T2 sequence (Q8IL11 whole entry): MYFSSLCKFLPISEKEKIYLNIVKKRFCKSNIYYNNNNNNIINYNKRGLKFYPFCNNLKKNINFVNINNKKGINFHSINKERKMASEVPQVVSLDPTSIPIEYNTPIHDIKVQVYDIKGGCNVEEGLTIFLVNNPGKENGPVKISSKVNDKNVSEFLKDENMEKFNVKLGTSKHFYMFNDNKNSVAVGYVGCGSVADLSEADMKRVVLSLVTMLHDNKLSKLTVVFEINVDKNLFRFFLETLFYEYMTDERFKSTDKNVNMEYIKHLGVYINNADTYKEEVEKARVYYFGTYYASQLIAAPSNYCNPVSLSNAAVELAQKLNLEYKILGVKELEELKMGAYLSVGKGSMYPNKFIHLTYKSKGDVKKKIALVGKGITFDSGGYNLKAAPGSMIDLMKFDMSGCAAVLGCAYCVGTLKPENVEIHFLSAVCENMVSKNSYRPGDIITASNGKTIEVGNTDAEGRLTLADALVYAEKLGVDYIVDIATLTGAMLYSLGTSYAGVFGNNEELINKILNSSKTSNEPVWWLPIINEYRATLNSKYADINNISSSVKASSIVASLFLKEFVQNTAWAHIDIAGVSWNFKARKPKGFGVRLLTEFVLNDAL

[1] = target: T3, Mannose-6-phosphate isomerase (Homo sapiens, UniProt P34949); test: inhibitors of human PMI, primary screen, biochemical, fluorescence intensity, coupled assay (AID 1209)
T3 sequence (P34949 whole entry): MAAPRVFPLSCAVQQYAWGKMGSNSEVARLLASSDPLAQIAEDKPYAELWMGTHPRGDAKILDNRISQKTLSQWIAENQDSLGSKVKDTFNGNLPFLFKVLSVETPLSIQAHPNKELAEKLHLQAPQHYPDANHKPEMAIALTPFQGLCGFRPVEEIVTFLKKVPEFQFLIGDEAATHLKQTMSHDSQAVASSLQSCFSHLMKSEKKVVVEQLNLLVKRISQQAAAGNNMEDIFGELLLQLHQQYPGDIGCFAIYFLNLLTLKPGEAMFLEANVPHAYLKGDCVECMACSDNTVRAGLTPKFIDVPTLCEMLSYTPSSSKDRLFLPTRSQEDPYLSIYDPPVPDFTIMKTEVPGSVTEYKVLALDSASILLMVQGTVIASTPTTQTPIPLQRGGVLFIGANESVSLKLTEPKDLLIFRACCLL

Cytochrome P450 2C19 = Cytochrome P450 2C19 (Homo sapiens, UniProt P33261); test: Cytochrome panel assay with activity outcomes. Panel member name: p450-cyp2c19 Compounds with AC50 equal or less than 10 uM are considered active; format: functional; conditions: read-out: AC50
[2] = target: Epstein-Barr nuclear antigen 1 (Epstein-Barr virus (strain B95-8) (HHV-4) (Human herpesvirus 4), UniProt P03211); test: EBNA-1 inhibitors, dose response, biochemical, fluorescence polarization, 1536-well (AID 2381); parameters: species or system human gammaherpesvirus 4;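 note: fluorescence polarization of a Cy5 DNA probe bound by EBNA-1 protein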
[3] = target: Lytic switch protein BZLF1 (Epstein-Barr virus (strain B95-8) (HHV-4) (Human herpesvirus 4), UniProt P03206); test: EBV ZTA inhibitors, dose response, counter-screen for EBNA-1 inhibitor project, biochemical, fluorescence polarization, Epstein-Barr virus, 1536-well (AID 2377); parameters: species or system human gammaherpesvirus 4;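 note: fluorescence polarization of Cy5-labelled ZRE DNA probe bound by purified Zta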
Cytochrome P450 2C9 = Cytochrome P450 2C9 (Homo sapiens, UniProt P11712)
[4] = target: Peroxisome proliferator-activated receptor gamma/Nuclear receptor coactivator 2 (Homo sapiens, UniProt P37231); format: functional;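 note: agonist potency for raising coactivator recruitment to the receptor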
[5] = target: Peroxisome proliferator-activated receptor gamma/Nuclear receptor coactivator 3 (Homo sapiens, UniProt P37231); format: functional;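 note: agonist potency for raising coactivator recruitment to the receptor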
[6] = target: Peroxisome proliferator-activated receptor gamma/Nuclear receptor coactivator 1 (Homo sapiens, UniProt P37231); format: functional;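 note: agonist potency as compounds enhance coactivator SRC-1 recruitment to PPARgamma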
Streptococcus = test: Group A Streptococcus viability loss, dose response, counter-screen for streptokinase expression inhibitor project, luminescence, BacTiterGlo (AID 1915); format: functional, organism-based;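 note: potency for reduction of bacterial viability or growth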
[7] = target: T4, Ubiquitin-conjugating enzyme E2 N (Homo sapiens, UniProt P61088); format: functional;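 note: Dose-response confirmation in a TR-FRET assay detecting UBC13-driven polyubiquitin chain formation, inhibition measured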
T4 sequence (P61088 whole entry): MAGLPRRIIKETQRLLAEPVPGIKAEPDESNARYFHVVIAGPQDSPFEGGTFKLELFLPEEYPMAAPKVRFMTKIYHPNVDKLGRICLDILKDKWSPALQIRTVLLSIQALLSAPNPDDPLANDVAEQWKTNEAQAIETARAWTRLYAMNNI

[8] = system: Streptococcus sp. 'group A'; test: growth inhibition of control SK(-) GAS strain, dose response, counter-screen for streptokinase expression inhibitor project, luminescence, kanamycin, BacTiterGlo, confirmation (AID 1900); format: functional, organism-based
Streptokinase A = target: T5, Streptokinase A (Streptococcus pyogenes serotype M1, UniProt P10520); test: S. pyogenes streptokinase expression inhibitors, potency, dose response, plasminogen activation absorbance, OD405 (AID 1914); format: functional, Streptococcus pyogenes M1 GAS;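 note: secreted streptokinase activity via plasminogen activation per viability signal from cell pellet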
T5 sequence (P10520 whole entry): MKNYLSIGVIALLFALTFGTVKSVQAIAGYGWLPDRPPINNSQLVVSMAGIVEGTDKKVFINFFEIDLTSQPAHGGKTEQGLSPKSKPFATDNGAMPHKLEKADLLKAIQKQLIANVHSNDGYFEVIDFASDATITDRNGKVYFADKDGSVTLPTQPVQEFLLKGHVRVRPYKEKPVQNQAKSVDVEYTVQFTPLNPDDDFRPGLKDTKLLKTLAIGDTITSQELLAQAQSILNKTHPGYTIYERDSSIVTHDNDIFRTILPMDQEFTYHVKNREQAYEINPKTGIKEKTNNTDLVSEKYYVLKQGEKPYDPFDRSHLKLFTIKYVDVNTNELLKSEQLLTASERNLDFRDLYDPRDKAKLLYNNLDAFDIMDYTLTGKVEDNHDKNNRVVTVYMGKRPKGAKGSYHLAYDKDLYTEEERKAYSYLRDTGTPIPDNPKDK

[9] = target: T6, Calpain-2 catalytic subunit (Sus scrofa, UniProt P43367); test: pig calpain II inhibitor potency, dose response, biochemical, fluorogenic peptide substrate (AID 1420); format: functional
T6 sequence (P43367 whole entry): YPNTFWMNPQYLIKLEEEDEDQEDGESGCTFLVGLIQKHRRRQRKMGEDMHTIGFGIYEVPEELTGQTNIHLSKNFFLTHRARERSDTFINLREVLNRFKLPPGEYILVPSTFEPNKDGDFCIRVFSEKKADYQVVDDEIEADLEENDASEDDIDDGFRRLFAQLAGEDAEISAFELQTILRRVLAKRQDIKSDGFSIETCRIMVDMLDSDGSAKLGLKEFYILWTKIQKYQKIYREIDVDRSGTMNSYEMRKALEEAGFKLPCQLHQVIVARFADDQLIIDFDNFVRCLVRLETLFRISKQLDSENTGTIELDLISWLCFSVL

[10] = target: Disintegrin and metalloproteinase domain-containing protein 17 (Homo sapiens, UniProt P78536); test: ADAM17 protease inhibitors, dose response, counter-screen for ADAM10 exosite inhibitor project, biochemical, quenched FRET substrate (AID 743253)
[11] = target: Heat shock protein HSP 90-alpha (Homo sapiens, UniProt P07900); format: functional, organism-based
[12] = cytotoxicity in KRAS-transformed pancreatic duct cells, primary screen, cell-based, fluorescence, HTS (AID 431); format: functional; conditions: Homo sapiens;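 note: cell line used: HPDE-C7K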
[13] = cytotoxicity in HPDE-C7 cells, cell-based, fluorescence, HTS (AID 430); format: functional; conditions: Homo sapiens
[14] = target: FAD-linked sulfhydryl oxidase ALR (Homo sapiens, UniProt P55789); test: inhibitors of human ALR sulfhydryl oxidase, dose response, biochemical, H2O2 detection, luminescence, cherry-pick (AID 493248)
[15] = target: T7, Corticotropin-releasing factor receptor 2/Corticotropin-releasing factor-binding protein (Homo sapiens, UniProt P24387+Q13324); test: activators of CRF receptor 2 with binding protein – uHTS hits, confirmation (AID 602473); format: functional; conditions: read-out: EC50_Mean
T7 sequence (Q13324 whole entry): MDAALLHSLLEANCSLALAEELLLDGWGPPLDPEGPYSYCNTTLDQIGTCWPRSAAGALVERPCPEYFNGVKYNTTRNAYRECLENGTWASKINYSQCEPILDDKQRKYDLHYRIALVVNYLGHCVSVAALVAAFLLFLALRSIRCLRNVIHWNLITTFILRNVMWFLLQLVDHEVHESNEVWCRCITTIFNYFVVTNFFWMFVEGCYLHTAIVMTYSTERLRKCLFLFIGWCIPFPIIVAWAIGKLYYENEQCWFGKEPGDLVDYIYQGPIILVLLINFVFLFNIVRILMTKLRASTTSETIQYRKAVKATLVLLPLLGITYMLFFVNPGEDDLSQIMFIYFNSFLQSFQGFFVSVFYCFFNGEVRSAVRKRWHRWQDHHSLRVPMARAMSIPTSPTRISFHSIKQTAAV
T7 sequence (P24387 whole entry): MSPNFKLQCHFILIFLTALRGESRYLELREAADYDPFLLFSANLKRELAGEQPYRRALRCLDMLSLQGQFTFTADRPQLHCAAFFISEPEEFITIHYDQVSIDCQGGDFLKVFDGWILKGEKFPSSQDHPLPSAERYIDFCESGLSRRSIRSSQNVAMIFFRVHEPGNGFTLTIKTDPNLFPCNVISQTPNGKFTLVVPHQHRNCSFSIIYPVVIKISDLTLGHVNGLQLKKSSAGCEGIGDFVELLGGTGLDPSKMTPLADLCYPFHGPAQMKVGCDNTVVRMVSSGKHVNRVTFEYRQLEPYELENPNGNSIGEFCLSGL

[16] = enhancers of respiration in Yfh1-depleted yeast, dose response, Friedreich's ataxia, plus single-dose screen (AID 1465); format: functional;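 note: yeast depleted of Yfh1p frataxin homolog grown on glycerol needing respiration; WST-1 tetrazolium dye reduction as measure of cellular dehydrogenase metabolic activity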
[17] = target: Long-chain-fatty-acid--AMP ligase FadD28 (Mycobacterium tuberculosis, UniProt P9WQ59); test: Fluorescence polarization aasay to screen for inhibitors that compete for the binding of FadD28 to a bisubstrate Measured in Biochemical System Using Plate Reader - 2147-01_Inhibitor_Dose_CherryPick_Activity.; format: functional, Mycobacterium tuberculosis H37Rv
Chain of Long-chain-fatty-acid--AMP ligase FadD28 (P9WQ59 whole entry): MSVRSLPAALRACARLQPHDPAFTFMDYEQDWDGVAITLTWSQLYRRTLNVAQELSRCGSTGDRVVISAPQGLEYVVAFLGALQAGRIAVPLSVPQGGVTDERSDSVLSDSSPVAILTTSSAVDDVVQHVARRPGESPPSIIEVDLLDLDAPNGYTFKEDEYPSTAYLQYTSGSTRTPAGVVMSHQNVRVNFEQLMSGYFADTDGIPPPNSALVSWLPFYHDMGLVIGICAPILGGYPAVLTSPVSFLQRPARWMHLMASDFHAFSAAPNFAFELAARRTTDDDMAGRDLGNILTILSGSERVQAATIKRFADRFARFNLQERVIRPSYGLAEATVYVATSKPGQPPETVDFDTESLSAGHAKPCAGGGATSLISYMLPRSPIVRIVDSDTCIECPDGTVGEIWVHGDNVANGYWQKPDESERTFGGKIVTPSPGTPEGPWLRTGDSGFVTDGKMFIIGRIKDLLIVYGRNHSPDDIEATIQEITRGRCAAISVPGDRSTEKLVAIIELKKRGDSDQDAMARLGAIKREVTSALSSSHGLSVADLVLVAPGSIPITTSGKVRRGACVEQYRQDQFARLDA

Chain of Peroxisome proliferator-activated receptor gamma/Nuclear receptor coactivator 3 (P37231 whole entry): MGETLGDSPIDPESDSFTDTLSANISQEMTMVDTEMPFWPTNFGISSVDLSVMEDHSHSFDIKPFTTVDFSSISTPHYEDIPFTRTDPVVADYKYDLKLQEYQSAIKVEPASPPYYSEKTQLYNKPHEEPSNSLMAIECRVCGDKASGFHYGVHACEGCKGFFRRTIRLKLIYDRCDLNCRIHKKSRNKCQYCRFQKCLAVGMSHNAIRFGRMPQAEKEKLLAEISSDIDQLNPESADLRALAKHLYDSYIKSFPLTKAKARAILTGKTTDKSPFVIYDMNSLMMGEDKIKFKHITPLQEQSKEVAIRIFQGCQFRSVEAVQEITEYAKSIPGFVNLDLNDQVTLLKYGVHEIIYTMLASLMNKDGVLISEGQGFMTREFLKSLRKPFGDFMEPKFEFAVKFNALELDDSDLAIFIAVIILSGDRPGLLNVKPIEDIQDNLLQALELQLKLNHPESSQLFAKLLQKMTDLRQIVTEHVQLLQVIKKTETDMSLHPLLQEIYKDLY
Chain of Peroxisome proliferator-activated receptor gamma/Nuclear receptor coactivator 3 (Q9Y6Q9 whole entry, further chain): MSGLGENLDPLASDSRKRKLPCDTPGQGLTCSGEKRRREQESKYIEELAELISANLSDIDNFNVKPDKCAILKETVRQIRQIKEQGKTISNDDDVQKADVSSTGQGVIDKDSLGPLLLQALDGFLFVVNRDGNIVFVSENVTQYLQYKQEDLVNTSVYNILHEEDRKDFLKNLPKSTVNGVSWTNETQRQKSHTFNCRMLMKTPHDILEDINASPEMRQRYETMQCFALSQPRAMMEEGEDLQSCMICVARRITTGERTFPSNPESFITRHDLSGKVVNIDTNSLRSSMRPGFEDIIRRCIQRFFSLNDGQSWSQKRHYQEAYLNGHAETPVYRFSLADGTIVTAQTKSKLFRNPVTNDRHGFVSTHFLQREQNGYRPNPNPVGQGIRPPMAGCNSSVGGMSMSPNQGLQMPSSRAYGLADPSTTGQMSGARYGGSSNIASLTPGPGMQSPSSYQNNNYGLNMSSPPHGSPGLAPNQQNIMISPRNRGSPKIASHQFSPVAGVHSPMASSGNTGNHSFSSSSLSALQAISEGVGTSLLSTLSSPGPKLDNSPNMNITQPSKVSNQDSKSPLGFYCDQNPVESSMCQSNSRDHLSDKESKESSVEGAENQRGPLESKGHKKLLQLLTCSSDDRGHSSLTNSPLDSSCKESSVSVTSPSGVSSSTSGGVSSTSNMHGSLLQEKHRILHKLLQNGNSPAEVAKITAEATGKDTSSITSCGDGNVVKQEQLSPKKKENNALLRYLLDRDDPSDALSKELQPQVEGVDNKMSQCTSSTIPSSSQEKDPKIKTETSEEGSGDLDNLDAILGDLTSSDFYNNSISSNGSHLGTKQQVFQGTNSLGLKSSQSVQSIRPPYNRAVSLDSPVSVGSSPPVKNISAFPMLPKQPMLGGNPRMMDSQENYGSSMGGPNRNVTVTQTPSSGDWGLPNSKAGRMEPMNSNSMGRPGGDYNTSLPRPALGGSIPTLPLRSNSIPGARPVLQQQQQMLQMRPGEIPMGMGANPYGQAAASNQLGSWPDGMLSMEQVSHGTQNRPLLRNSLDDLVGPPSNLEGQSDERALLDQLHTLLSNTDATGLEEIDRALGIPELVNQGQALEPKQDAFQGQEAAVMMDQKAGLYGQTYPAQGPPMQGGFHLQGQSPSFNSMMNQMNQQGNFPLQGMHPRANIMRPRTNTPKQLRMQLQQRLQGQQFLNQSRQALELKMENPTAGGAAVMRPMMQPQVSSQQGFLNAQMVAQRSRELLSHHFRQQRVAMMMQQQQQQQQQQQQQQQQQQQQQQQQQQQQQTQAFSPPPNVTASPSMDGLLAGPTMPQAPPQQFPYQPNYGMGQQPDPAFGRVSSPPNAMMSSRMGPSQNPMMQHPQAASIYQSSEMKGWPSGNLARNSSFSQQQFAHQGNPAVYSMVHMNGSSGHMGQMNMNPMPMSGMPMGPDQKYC
Chain of Peroxisome proliferator-activated receptor gamma/Nuclear receptor coactivator 2 (P37231 whole entry): as the sequence (P37231 whole entry) above
Chain of Peroxisome proliferator-activated receptor gamma/Nuclear receptor coactivator 2 (Q15596 whole entry, further chain): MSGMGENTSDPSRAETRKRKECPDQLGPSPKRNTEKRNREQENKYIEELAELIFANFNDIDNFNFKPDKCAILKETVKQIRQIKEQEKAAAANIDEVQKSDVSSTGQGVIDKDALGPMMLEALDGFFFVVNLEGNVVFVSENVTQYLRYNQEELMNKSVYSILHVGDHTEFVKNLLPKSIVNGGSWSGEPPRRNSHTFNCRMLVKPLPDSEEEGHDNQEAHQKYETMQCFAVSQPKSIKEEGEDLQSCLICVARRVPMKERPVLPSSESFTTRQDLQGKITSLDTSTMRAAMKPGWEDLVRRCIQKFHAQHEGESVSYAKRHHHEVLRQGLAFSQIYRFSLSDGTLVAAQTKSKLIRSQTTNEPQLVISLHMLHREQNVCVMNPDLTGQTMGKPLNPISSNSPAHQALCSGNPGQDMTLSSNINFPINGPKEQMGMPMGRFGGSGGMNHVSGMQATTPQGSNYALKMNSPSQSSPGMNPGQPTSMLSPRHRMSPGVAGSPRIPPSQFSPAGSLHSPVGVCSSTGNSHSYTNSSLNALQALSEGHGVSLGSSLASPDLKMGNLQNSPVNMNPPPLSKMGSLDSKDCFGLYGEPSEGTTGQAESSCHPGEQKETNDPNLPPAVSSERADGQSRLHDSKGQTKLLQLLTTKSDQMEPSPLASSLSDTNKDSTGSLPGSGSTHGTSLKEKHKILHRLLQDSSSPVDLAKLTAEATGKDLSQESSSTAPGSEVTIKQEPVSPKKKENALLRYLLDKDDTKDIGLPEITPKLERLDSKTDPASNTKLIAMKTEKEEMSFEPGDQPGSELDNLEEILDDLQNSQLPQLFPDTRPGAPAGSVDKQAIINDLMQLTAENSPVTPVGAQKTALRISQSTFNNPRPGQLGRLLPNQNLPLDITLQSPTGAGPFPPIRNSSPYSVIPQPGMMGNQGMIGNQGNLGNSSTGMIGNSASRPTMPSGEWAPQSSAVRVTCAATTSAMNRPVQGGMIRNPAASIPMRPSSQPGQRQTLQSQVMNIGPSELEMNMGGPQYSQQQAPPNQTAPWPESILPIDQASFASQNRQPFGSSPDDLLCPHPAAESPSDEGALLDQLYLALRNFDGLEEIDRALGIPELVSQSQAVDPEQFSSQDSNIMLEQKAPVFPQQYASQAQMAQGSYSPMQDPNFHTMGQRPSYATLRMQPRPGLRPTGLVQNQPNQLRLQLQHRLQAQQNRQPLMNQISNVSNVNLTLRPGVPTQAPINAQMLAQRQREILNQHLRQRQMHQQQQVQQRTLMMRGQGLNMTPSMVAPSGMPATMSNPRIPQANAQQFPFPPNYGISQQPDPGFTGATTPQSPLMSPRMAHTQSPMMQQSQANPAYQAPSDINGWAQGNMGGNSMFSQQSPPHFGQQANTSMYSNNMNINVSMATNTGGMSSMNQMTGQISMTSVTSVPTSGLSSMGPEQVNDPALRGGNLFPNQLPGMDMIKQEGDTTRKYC
Chain of Cytochrome P450 2C19 (P33261 whole entry): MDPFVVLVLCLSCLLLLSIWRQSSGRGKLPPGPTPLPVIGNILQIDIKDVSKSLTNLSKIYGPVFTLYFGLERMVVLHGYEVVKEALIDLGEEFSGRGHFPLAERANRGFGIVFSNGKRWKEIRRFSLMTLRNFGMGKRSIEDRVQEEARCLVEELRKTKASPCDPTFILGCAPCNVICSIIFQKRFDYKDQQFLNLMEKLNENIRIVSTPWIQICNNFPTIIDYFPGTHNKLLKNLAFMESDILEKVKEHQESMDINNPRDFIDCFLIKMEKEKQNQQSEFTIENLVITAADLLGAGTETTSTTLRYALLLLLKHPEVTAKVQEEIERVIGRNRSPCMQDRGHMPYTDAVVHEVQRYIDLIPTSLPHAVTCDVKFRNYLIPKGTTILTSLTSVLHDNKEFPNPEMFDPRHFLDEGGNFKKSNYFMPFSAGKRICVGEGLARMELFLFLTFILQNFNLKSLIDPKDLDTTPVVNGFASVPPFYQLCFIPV

**Q.** For `CCCCC(=O)NNC(=S)NC(=O)c1cccc([N+](=O)[O-])c1`, which AC50 (Cytochrome P450 1A2) is on record?
**A.** 22.4 µM (inconclusive)

**Q.** What about the AC50 (Cytochrome P450 3A4) of the same compound?
**A.** inconclusive

**Q.** What about the IC50 (Leucine aminopeptidase) of the same compound?
**A.** 49.1 µM (active)

**Q.** What about the IC50 [1] of the same compound?
**A.** > 50 µM (not active)

**Q.** And the AC50 (Cytochrome P450 2C19)?
**A.** 15.8 µM (inconclusive)

**Q.** With `CCc1nnc(NC(=O)CSc2nc3cc4c(cc3cc2C)OCCO4)s1` as the compound, how does the AC50 (Cytochrome P450 1A2) read?
**A.** 1.58 µM (inconclusive)

**Q.** What about the IC50 [2] of the same compound?
**A.** 5.82 µM (active)

**Q.** What about the IC50 [3] of the same compound?
**A.** > 111 µM (not active)

**Q.** And the AC50 (Cytochrome P450 2C19)?
**A.** 6.31 µM (inconclusive)

**Q.** And the AC50 (Cytochrome P450 2C9)?
**A.** 0.398 µM (inconclusive)

**Q.** Which EC50 [4] does the source give for `CC(C)(C)C1CCc2c(sc(NC(=O)c3cccs3)c2C(N)=O)C1` (centres undefined) here?
**A.** > 79.4 µM (not active)

**Q.** And the EC50 [5]?
**A.** > 79.4 µM (not active)

**Q.** And the EC50 [6]?
**A.** > 79.4 µM (not active)

**Q.** Which EC50 (Streptococcus) does the source give for `C=C(C)COc1ccc(-c2n[nH]cc2Oc2cccc(OC)c2)c(O)c1` here?
**A.** 10 µM (active)

**Q.** And the IC50 [7]?
**A.** > 20 µM (inactive)

**Q.** And the EC50 [8]?
**A.** 8.18 µM (active)

**Q.** And the EC50 (Streptokinase A)?
**A.** > 150 µM (not active)

**Q.** And the IC50 [9]?
**A.** 7.92 µM (not active)

**Q.** What about the IC50 [10] of the same compound?
**A.** > 69.5 µM (inactive)

**Q.** And the AC50 [11]?
**A.** 7.54 µM (active)

**Q.** What about the EC50 [12] of the same compound?
**A.** 7.54 µM (active)

**Q.** And the EC50 [13]?
**A.** 8.77 µM (active)

**Q.** With `O=C(NN/C=C1\C(=O)N(c2ccc(Cl)cn2)C(=O)c2ccccc21)c1ccncc1` as the compound, how does the AC50 [14] read?
**A.** 5.43 µM (active)

**Q.** And the EC50 [15]?
**A.** 6.13 µM (active)

**Q.** And the EC50 [16]?
**A.** > 100 µM (active)

**Q.** And the AC50 [17]?
**A.** > 100 µM (inactive)

**Q.** What does the source list for `CCOCCn1/c(=N/C(=O)c2cc(Cl)sc2Cl)sc2cc(S(N)(=O)=O)ccc21`?
**A.** EC50 [4]: 14 µM (not active); EC50 [5]: 16.8 µM (not active); EC50 [6]: 13.4 µM (not active)
